Experiments:
Assay in all cases: relative viability (nuclei count vs DMSO), 5 days (fraction); higher = more cells survive
LXF-289 = system: LXF-289
Procedure, shortened: (§1)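 Cells from lung cancer lines were seeded into 1536-well plates and, one day later, dosed by pin tool. Treatments were either a single drug or a fixed dose of an anchor drug with five library-drug doses (not always all listed) in √10 steps. After 5 days, nuclei were stained in a one-step fixation (final 0.05% Triton X-100, 1% formaldehyde, 1 ug/ml Hoechst) and counted on 4× images, and relative viability is the treated-to-vehicle nuclei ratio, as the median of duplicate plates.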

ABC-1 = system: ABC-1
Procedure, shortened: as §1

NCI-H1993 = system: NCI-H1993
Procedure, shortened: as §1

LK-2 = system: LK-2
Procedure, shortened: as §1

NCI-H1792 = system: NCI-H1792
Procedure, shortened: as §1

NCI-H2009 = system: NCI-H2009
Procedure, shortened: as §1

SK-MES-1 = system: SK-MES-1
Procedure, shortened: as §1

SW 900 = system: SW 900
Procedure, shortened: as §1

NCI-H2170 = system: NCI-H2170
Procedure, shortened: as §1

NCI-H2228 = system: NCI-H2228
Procedure, shortened: as §1

HARA = system: HARA
Procedure, shortened: as §1

SW 1573 = system: SW 1573
Procedure, shortened: as §1

NCI-H727 = system: NCI-H727
Procedure, shortened: as §1

PC-3 [JPC-3] = system: PC-3 [JPC-3]
Procedure, shortened: as §1

NCI-H522 = system: NCI-H522
Procedure, shortened: as §1

HOP-62 = system: HOP-62
Procedure, shortened: as §1

EMC-BAC-2 = system: EMC-BAC-2
Procedure, shortened: as §1

NCI-H322M = system: NCI-H322M
Procedure, shortened: as §1

NCI-H1944 = system: NCI-H1944
Procedure, shortened: as §1

NCI-H3122 = system: NCI-H3122
Procedure, shortened: as §1

A-427 = system: A-427
Procedure, shortened: as §1

Nc1ccn([C@@H]2O[C@H](CO)[C@@H](O)[C@@H]2O)c(=O)n1 [Cytarabine] + CC(=O)c1c(C)c2cnc(Nc3ccc(N4CCNCC4)cn3)nc2n(C2CCCC2)c1=O [Palbociclib] (partner 0.5 µM)
relative viability (LXF-289; first compound 0.005 µM): 0.49
relative viability (LXF-289; first compound 0.01581 µM): 0.563
relative viability (LXF-289; first compound 0.05 µM): 0.511
relative viability (LXF-289; first compound 0.1581 µM): 0.296
relative viability (LXF-289; first compound 0.5 µM): 0.287
relative viability (ABC-1; first compound 0.005 µM): 0.49
relative viability (ABC-1; first compound 0.01581 µM): 0.736
relative viability (ABC-1; first compound 0.05 µM): 0.625
relative viability (ABC-1; first compound 0.1581 µM): 0.468
relative viability (ABC-1; first compound 0.5 µM): 0.432
relative viability (NCI-H1993; first compound 0.005 µM): 0.714
relative viability (NCI-H1993; first compound 0.01581 µM): 0.489
relative viability (NCI-H1993; first compound 0.05 µM): 0.518
relative viability (NCI-H1993; first compound 0.1581 µM): 0.507
relative viability (NCI-H1993; first compound 0.5 µM): 0.323
relative viability (LK-2; first compound 0.005 µM): 0.634
relative viability (LK-2; first compound 0.01581 µM): 0.267
relative viability (LK-2; first compound 0.05 µM): 0.233
relative viability (LK-2; first compound 0.1581 µM): 0.14
relative viability (LK-2; first compound 0.5 µM): 0.107
relative viability (NCI-H1792; first compound 0.005 µM): 0.853
relative viability (NCI-H1792; first compound 0.01581 µM): 0.655
relative viability (NCI-H1792; first compound 0.05 µM): 0.618
relative viability (NCI-H1792; first compound 0.1581 µM): 0.508
relative viability (NCI-H1792; first compound 0.5 µM): 0.468
relative viability (NCI-H2009; first compound 0.005 µM): 0.211
relative viability (NCI-H2009; first compound 0.01581 µM): 0.192
relative viability (NCI-H2009; first compound 0.05 µM): 0.187
relative viability (NCI-H2009; first compound 0.1581 µM): 0.154
relative viability (NCI-H2009; first compound 0.5 µM): 0.125
relative viability (SK-MES-1; first compound 0.005 µM): 0.297
relative viability (SK-MES-1; first compound 0.01581 µM): 0.265
relative viability (SK-MES-1; first compound 0.05 µM): 0.253
relative viability (SK-MES-1; first compound 0.1581 µM): 0.246
relative viability (SK-MES-1; first compound 0.5 µM): 0.223
relative viability (SW 900; first compound 0.005 µM): 0.536
relative viability (SW 900; first compound 0.01581 µM): 0.515
relative viability (SW 900; first compound 0.05 µM): 0.451
relative viability (SW 900; first compound 0.1581 µM): 0.362
relative viability (SW 900; first compound 0.5 µM): 0.292
relative viability (NCI-H2170; first compound 0.005 µM): 0.369
relative viability (NCI-H2170; first compound 0.01581 µM): 0.266
relative viability (NCI-H2170; first compound 0.05 µM): 0.26
relative viability (NCI-H2170; first compound 0.1581 µM): 0.177
relative viability (NCI-H2170; first compound 0.5 µM): 0.186
relative viability (NCI-H2228; first compound 0.005 µM): 0.445
relative viability (NCI-H2228; first compound 0.01581 µM): 0.343
relative viability (NCI-H2228; first compound 0.05 µM): 0.215
relative viability (NCI-H2228; first compound 0.1581 µM): 0.131
relative viability (NCI-H2228; first compound 0.5 µM): 0.116
relative viability (HARA; first compound 0.005 µM): 0.291
relative viability (HARA; first compound 0.01581 µM): 0.212
relative viability (HARA; first compound 0.05 µM): 0.221
relative viability (HARA; first compound 0.1581 µM): 0.158
relative viability (HARA; first compound 0.5 µM): 0.163
relative viability (SW 1573; first compound 0.005 µM): 0.334
relative viability (SW 1573; first compound 0.01581 µM): 0.407
relative viability (SW 1573; first compound 0.05 µM): 0.281
relative viability (SW 1573; first compound 0.1581 µM): 0.147
relative viability (SW 1573; first compound 0.5 µM): 0.117
relative viability (NCI-H727; first compound 0.005 µM): 0.613
relative viability (NCI-H727; first compound 0.01581 µM): 0.556
relative viability (NCI-H727; first compound 0.05 µM): 0.599
relative viability (NCI-H727; first compound 0.1581 µM): 0.554
relative viability (NCI-H727; first compound 0.5 µM): 0.505
relative viability (PC-3 [JPC-3]; first compound 0.005 µM): 0.546
relative viability (PC-3 [JPC-3]; first compound 0.01581 µM): 0.479
relative viability (PC-3 [JPC-3]; first compound 0.05 µM): 0.489
relative viability (PC-3 [JPC-3]; first compound 0.1581 µM): 0.459
relative viability (PC-3 [JPC-3]; first compound 0.5 µM): 0.463
relative viability (NCI-H522; first compound 0.005 µM): 1.09
relative viability (NCI-H522; first compound 0.01581 µM): 0.872
relative viability (NCI-H522; first compound 0.05 µM): 0.824
relative viability (NCI-H522; first compound 0.1581 µM): 0.767
relative viability (NCI-H522; first compound 0.5 µM): 0.595
relative viability (HOP-62; first compound 0.005 µM): 0.395
relative viability (HOP-62; first compound 0.01581 µM): 0.297
relative viability (HOP-62; first compound 0.05 µM): 0.234
relative viability (HOP-62; first compound 0.1581 µM): 0.139
relative viability (HOP-62; first compound 0.5 µM): 0.155
relative viability (EMC-BAC-2; first compound 0.005 µM): 0.51
relative viability (EMC-BAC-2; first compound 0.01581 µM): 0.501
relative viability (EMC-BAC-2; first compound 0.05 µM): 0.463
relative viability (EMC-BAC-2; first compound 0.1581 µM): 0.353
relative viability (EMC-BAC-2; first compound 0.5 µM): 0.303
relative viability (NCI-H322M; first compound 0.005 µM): 0.414
relative viability (NCI-H322M; first compound 0.01581 µM): 0.492
relative viability (NCI-H322M; first compound 0.05 µM): 0.42
relative viability (NCI-H322M; first compound 0.1581 µM): 0.385
relative viability (NCI-H322M; first compound 0.5 µM): 0.383
relative viability (NCI-H1944; first compound 0.005 µM): 0.283
relative viability (NCI-H1944; first compound 0.01581 µM): 0.248
relative viability (NCI-H1944; first compound 0.05 µM): 0.207
relative viability (NCI-H1944; first compound 0.1581 µM): 0.205
relative viability (NCI-H1944; first compound 0.5 µM): 0.16
relative viability (NCI-H3122; first compound 0.005 µM): 0.188
relative viability (NCI-H3122; first compound 0.01581 µM): 0.389
relative viability (NCI-H3122; first compound 0.05 µM): 0.122
relative viability (NCI-H3122; first compound 0.1581 µM): 0.126
relative viability (NCI-H3122; first compound 0.5 µM): 0.113
relative viability (A-427; first compound 0.005 µM): 0.437
relative viability (A-427; first compound 0.01581 µM): 0.474
relative viability (A-427; first compound 0.05 µM): 0.363
relative viability (A-427; first compound 0.1581 µM): 0.281
relative viability (A-427; first compound 0.5 µM): 0.273

From the supplement of paper PMC10307832
